Here are results for one compound from article PMC6100543, “Parthenolide Inhibits STAT3 Signaling by Covalently Targeting Janus Kinases” (Molecules : A Journal of Synthetic Chemistry and Natural …, 2018).

This assay addresses T1, JAK2 (Mus musculus, UniProt Q62120).
T1 construct: JAK2-FLAG, overexpressed in HEK293 and immunoprecipitated
The assay is described as follows: in vitro kinase assay with immunoprecipitated JAK2-FLAG; LC-MS/MS of PN-modified tryptic peptides. The assay is classed as biochemical.

T1 sequence (Q62120 whole entry): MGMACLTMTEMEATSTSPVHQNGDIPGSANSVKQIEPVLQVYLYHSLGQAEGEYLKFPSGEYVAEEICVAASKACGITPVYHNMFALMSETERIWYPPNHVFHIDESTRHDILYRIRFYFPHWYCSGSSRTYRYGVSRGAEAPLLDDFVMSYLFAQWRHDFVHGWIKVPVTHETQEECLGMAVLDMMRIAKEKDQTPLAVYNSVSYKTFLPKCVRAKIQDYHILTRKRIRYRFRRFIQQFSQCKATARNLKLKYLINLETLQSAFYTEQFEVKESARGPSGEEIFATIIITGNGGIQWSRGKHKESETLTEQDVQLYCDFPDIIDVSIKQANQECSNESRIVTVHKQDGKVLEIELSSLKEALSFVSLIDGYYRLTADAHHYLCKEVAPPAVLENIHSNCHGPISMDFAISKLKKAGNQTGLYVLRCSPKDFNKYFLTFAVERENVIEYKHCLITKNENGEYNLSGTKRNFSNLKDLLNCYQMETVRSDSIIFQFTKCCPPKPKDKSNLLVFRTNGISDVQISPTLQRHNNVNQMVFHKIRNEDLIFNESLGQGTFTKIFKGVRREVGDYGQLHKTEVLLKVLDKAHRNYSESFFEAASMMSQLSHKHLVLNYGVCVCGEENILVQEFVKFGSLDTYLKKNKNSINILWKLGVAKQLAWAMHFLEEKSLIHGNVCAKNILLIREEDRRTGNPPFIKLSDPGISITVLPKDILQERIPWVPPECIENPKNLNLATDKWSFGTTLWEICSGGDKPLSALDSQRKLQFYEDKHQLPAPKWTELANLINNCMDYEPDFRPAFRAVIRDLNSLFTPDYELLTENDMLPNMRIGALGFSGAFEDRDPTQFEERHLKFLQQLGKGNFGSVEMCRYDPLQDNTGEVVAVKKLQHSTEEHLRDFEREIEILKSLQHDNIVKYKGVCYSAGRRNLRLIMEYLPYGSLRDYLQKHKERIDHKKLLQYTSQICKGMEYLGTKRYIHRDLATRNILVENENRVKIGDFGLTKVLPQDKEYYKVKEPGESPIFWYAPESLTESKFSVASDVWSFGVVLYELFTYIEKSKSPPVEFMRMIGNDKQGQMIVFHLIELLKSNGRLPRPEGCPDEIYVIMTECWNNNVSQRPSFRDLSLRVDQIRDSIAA

For orientation: IC50 means the concentration needed to halve the response being measured. In turn, `C=C1C(=O)O[C@H]2[C@H]1CC/C(C)=C/CC[C@@]1(C)O[C@@H]21` [PN, parthenolide] came in with a 50% inhibitory concentration (IC50) of 3.94 µM.
